pEC50, pIC50: −log10 of the molar value. *1 amine or outer side, *2 acyl side, *3 side chain or, on linkers, in order; H or OH if unused. Where a SMILES comes first, the peptide text is derived from it. Side-chain parts run from the residue outwards. [ ]: non-standard residue; d: D form. The star is where a group is joined. C18 diacid = O=C(O)CCCCCCCCCCCCCCCCC(=O)*; γGlu = O=C(O)[C@H](CCC(=O)[*:2])N[*:1]; AEEA = NCCOCCOCC(=O)O; Aib = CC(C)(N)C(=O)O

One series can be described thus: physchem. It is filed as physicochemical. The conditions noted are these: for Soluble amount: 24 h, pH 7.4; for solubility at 24 h: pH 7.4, Soluble amount. The method, boiled down: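 Peptide at 10 mg/ml (purity-corrected) in 100 mM phosphate pH 7.4, alone or with 2.7 mg/ml m-cresol; 1 h gentle agitation, then 24 h at 5 °C. Supernatant after 15 min at 2500 RCF quantified by UHPLC-UV against reference peptide, adjusted for extinction coefficients.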

The target of series [1] is T1, human GIP receptor (hGIPR) (Homo sapiens, UniProt P48546).
T1 sequence (P48546 22-466): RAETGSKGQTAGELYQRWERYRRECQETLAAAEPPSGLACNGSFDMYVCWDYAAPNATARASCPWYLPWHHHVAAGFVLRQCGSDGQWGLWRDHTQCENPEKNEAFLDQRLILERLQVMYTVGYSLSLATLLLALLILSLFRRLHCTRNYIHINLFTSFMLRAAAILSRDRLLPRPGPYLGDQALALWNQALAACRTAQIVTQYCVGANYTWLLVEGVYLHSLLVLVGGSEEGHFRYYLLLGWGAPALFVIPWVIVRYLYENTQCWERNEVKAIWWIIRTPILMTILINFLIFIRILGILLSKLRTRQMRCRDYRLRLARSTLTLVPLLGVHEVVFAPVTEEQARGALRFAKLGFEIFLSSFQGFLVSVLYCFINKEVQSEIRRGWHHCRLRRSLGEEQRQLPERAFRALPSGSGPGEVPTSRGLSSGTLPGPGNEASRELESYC
Briefly: Binding assay, displacement of [125I]GIP from HEK-293 membranes expressing GIPR. The following applies: [125I]GIP displacement. The protocol: HEK-293 cells recombinantly over-expressing GIPR or GLP-1R were grown to 50% confluency, washed with warm 1×PBS (Gibco) and detached in HEPES/EDTA-buffer (100 mM HEPES pH 7.5, 5 mM EDTA). Cells were harvested by centrifugation at 4° C. and 3000×g and the pellets were stored at −80° C. until further processing.
After thawing on ice, pellets were resuspended in HEPES/EDTA-buffer and homogenized on ice for 1 min using Ultra-Turray T25. After subsequent sonification the cell debris was removed by centrifugation at 1000×g and 4° C. Supernatants were then ultra-centrifuged at 100000×g and 4° C. under vacuum for 30 min. Pellets were resuspended in HEPES/EDTA/NaCl-buffer (20 mM HEPES, 1 mM EDTA, 150 mM NaCl; add 1 Complete Mini Protease inhibitor cocktail to 10 ml buffer) and protein content was determined via BCA-Protein assay.

The nature of series [2]: ThT assay for the assessment of physical stability. It is filed as physicochemical. The conditions noted are these: ThT buffer system A: 100 mM phosphate buffer pH 7.4; 3 mg/ml, 37° C. An excerpt:
Low physical stability of a peptide solution may lead to amyloid fibril formation, which is observed as well-ordered, thread-like macromolecular structures in the sample, which eventually may lead to gel formation. Thioflavin T (ThT) is widely used to visualize and quantify the presence of misfolded protein aggregates [Biancalana et al., Biochim. Biophys. Acta 2010, 1804(7), 1405]. […] Enzymol. 1999, 309, 274]. The time course for fibril formation often follows the characteristic shape of a sigmoidal curve and can be separated into three regions: a lag phase, a fast growth phase, and a plateau phase.
The typical fibril formation process starts with the lag phase in which the amount of partially folded peptide turned into fibrils is not significant enough to be detected. The lag-time corresponds to the time the critical mass of the nucleus is built. Afterwards, a drastic elongation phase follows, and fibril concentration increases rapidly.
Investigations were carried out to determine fibrillation tendencies under stress conditions by shaking at 37° C. within Fluoroskan Ascent FL or Fluoroskan Ascent.
For the tests in Fluoroskan Ascent (FL), 200 μl sample were placed into a 96-well mictrotiter plate PS, flat bottom, Greiner Fluotrac No. 655076. Plates were sealed with Scotch Tape (Qiagen). Samples were stressed by continuous cycles of 10 sec shaking at 960 rpm and 50 sec rest period at 37° C. The kinetic was monitored by measuring fluorescence intensity every 20 min.
Peptides were diluted in a buffer system to a final concentration of 3 mg/ml. 20 μl of a 10.1 mM ThT solution in H2O were added to 2 ml of peptide solution to receive a final concentration of 100 μM ThT. For each sample eight replicates were tested.
ThT buffer system A) 100 mM phosphate buffer pH 7.4
ThT buffer system B) 100 mM phosphate buffer pH 7.4, 2.7 mg/ml m-cresol
Lag time in hours (h) in Thioflavin T (ThT) assay of peptide samples was determined in ThT buffer system A as described in Methods.

Another series concerns the target T2, human GIP receptor (Homo sapiens, UniProt P48546).
T2 construct: human adipocytes endogenously expressing the human GIP receptor; host or cells: human preadipocytes (Lonza) differentiated to adipocytes
T2 sequence (P48546 22-466): T1 sequence (P48546 22-466)
Briefly: cAMP HTRF assay in human adipocytes endogenously expressing the human GIP receptor. The conditions noted are these: for pEC50: read-out: hGIPR EC50; for Emax: read-out: hGIPR Emax. It is filed as cell-based. The protocol:
For this, one vial of human preadipocytes (˜10^6 cells; Lonza) was thawed in a T-75 cell culture dish.
After 3 days, the cells were washed with PBS and 1.5 ml Trypsin, incubated for 4 min, then resuspended in medium, centrifugated for 10 min @ 300 rcf RT, resuspended again and distributed to four T-75 cell culture dishes.
After 5 days, the cells were washed with PBS and 1.5 ml Trypsin, incubated for 4 min, then resuspended in medium, centrifugated for 10 min @ 300 rcf RT, resuspended again and sawn in T-75 dishes (2.5×10^6 cells per dish) in 15 ml Differentiation medium each.
After 6 days of differentiation, 5000 cells per well were dispensed on a 96-well plate (#CLS3694 from Corning®, Sigma-Aldrich). For measurement of cAMP generation, 25 μL of test compound was added to each well of the 96-well plate, followed by incubation for 30 min at room temperature.
The cAMP generated following test compound stimulation was determined using a kit from Cisbio Corp. based on HTRF (Homogenous Time Resolved Fluorescence). The cAMP assay was performed according to manufacturer's instructions (Cisbio).
The cAMP content of cells was determined using a kit from Cisbio Corp. based on HTRF (Homogenous Time Resolved Fluorescence).
A general note: In TR-FRET formats the signal depends on donor and acceptor labels being close together.

With `CC[C@H](C)[C@H](NC(=O)[C@H](CCCNC(=N)N)NC(=O)[C@H](CC(=O)O)NC(=O)[C@H](CCCCNC(=O)COCCOCCNC(=O)COCCOCCNC(=O)CC[C@H](NC(=O)CCCCCCCCCCCCCCCCC(=O)O)C(=O)O)NC(=O)C(C)(C)NC(=O)[C@@H](NC(=O)[C@H](CO)NC(=O)[C@H](CC(C)C)NC(=O)[C@H](CC(=O)O)NC(=O)[C@H](CO)NC(=O)[C@@H](NC(=O)[C@H](Cc1ccccc1)NC(=O)[C@@H](NC(=O)CNC(=O)[C@H](CCC(=O)O)NC(=O)C(C)(C)NC(=O)[C@@H](N)Cc1ccc(O)cc1)[C@@H](C)O)[C@@H](C)CC)[C@@H](C)CC)C(=O)N[C@@H](Cc1c[nH]cn1)C(=O)N[C@@H](CCC(N)=O)C(=O)NC(C)(C)C(=O)N[C@@H](CCC(=O)O)C(=O)N[C@@H](Cc1ccccc1)C(=O)N[C@H](C(=O)N[C@@H](CCC(=O)O)C(=O)N[C@@H](Cc1c[nH]c2ccccc12)C(=O)N[C@@H](CC(C)C)C(=O)N[C@@H](CC(C)C)C(=O)N[C@@H](C)C(=O)N[C@@H](CCC(N)=O)C(=O)NCC(=O)N1CCC[C@H]1C(=O)N[C@@H](CO)C(=O)N[C@@H](CO)C(=O)NCC(=O)N[C@@H](C)C(=O)N1CCC[C@H]1C(=O)N1CCC[C@H]1C(=O)N1CCC[C@H]1C(=O)N[C@@H](CO)C(N)=O)[C@@H](C)CC` [SEQ ID NO: 4, H2N-Y-Aib-E-G-T-F-I-S-D-I-S-I-Aib-K[{AEEA}2-gGlu-C18OH]-D-R-I-H-Q-Aib-E-F-I-E-W-I-L-A-Q-G-P-S-S-G-A-P-P-P-S-NH2] (H-Y[Aib]EGTFISDLSI[Aib]K([AEEA-AEEA-γGlu-C18 diacid])DRIHQ[Aib]EFIEWLLAQGPSSGAPPPS-NH2), in the series “physchem”, the Soluble amount is over 8.4 mg/mL and the solubility – broadly, the concentration that dissolves in the medium under given conditions – at 24 h is over 9500 µg/mL. Moreover, the negative-log IC50 (pIC50) – broadly, the negative decadic logarithm of the IC50, by convention in mol/L – in series [1] was 9.70. In addition, in series [2], the “Increase in FI” value is on record as “no” and the “Lag time before increase” value is given as over 45 h. Besides, on human GIP receptor, the negative-log EC50 (pEC50) (usually −log10 of the EC50, conventionally taken in molar units) was 9.30 and the Emax (usually the greatest response seen or fitted, relative to the assay's reference) is 116%.

In the case of `CC[C@H](C)[C@H](NC(=O)[C@H](CCCNC(=N)N)NC(=O)[C@H](CC(=O)O)NC(=O)[C@H](CCCCNC(=O)CNC(=O)CNC(=O)CNC(=O)CC[C@H](NC(=O)CCCCCCCCCCCCCCCCC(=O)O)C(=O)O)NC(=O)C(C)(C)NC(=O)[C@@H](NC(=O)[C@H](CO)NC(=O)[C@H](CC(C)C)NC(=O)[C@H](CC(=O)O)NC(=O)[C@H](CO)NC(=O)[C@@H](NC(=O)[C@H](Cc1ccccc1)NC(=O)[C@@H](NC(=O)CNC(=O)[C@H](CCC(=O)O)NC(=O)C(C)(C)NC(=O)[C@@H](N)Cc1ccc(O)cc1)[C@@H](C)O)[C@@H](C)CC)[C@@H](C)CC)C(=O)N[C@@H](Cc1c[nH]cn1)C(=O)N[C@@H](CCC(N)=O)C(=O)NC(C)(C)C(=O)N[C@@H](CCC(=O)O)C(=O)N[C@@H](Cc1ccccc1)C(=O)N[C@H](C(=O)N[C@@H](CCC(=O)O)C(=O)N[C@@H](Cc1c[nH]c2ccccc12)C(=O)N[C@@H](CC(C)C)C(=O)N[C@@H](CC(C)C)C(=O)N[C@@H](C)C(=O)N[C@@H](CCC(N)=O)C(=O)NCC(=O)N1CCC[C@H]1C(=O)N[C@@H](CO)C(=O)N[C@@H](CO)C(=O)NCC(=O)N[C@@H](C)C(=O)N1CCC[C@H]1C(=O)N1CCC[C@H]1C(=O)N1CCC[C@H]1C(=O)N[C@@H](CO)C(N)=O)[C@@H](C)CC` [SEQ ID NO: 5, H2N-Y-Aib-E-G-T-F-I-S-D-I-S-I-Aib-K[{Gly}3-gGlu-C18OH]-D-R-I-H-Q-Aib-E-F-I-E-W-I-L-A-Q-G-P-S-S-G-A-P-P-P-S-NH2] (H-Y[Aib]EGTFISDLSI[Aib]K([Gly-Gly-Gly-γGlu-C18 diacid])DRIHQ[Aib]EFIEWLLAQGPSSGAPPPS-NH2), in the series “physchem”, the Soluble amount is over 8.3 mg/mL and the solubility at 24 h was over 9300 µg/mL. Further, the pIC50 in series [1] was 10.00. Moreover, in series [2], the “Increase in FI” value is “no” and the “Lag time before increase” value is over 45 h. For the same compound, on human GIP receptor, the pEC50 is 9.30 and the maximum response (Emax) amounted to 137%.

Take `CC[C@H](C)[C@H](NC(=O)[C@H](Cc1ccccc1)NC(=O)[C@H](CCC(=O)O)NC(=O)[C@H](CCC(=O)O)NC(=O)[C@H](CCC(N)=O)NC(=O)[C@H](Cc1c[nH]cn1)NC(=O)[C@@H](NC(=O)[C@H](CCCNC(=N)N)NC(=O)[C@H](CC(=O)O)NC(=O)[C@H](CCCCNC(=O)COCCOCCNC(=O)COCCOCCNC(=O)CC[C@H](NC(=O)CCCCCCCCCCCCCCCCC(=O)O)C(=O)O)NC(=O)C(C)(C)NC(=O)[C@@H](NC(=O)[C@H](CO)NC(=O)[C@H](CC(C)C)NC(=O)[C@H](CC(=O)O)NC(=O)[C@H](CO)NC(=O)[C@@H](NC(=O)[C@H](Cc1ccccc1)NC(=O)[C@@H](NC(=O)CNC(=O)[C@H](CCC(=O)O)NC(=O)C(C)(C)NC(=O)[C@@H](N)Cc1ccc(O)cc1)[C@@H](C)O)[C@@H](C)CC)[C@@H](C)CC)[C@@H](C)CC)C(=O)N[C@@H](CCC(=O)O)C(=O)N[C@@H](Cc1c[nH]c2ccccc12)C(=O)N[C@@H](CC(C)C)C(=O)N[C@@H](CC(C)C)C(=O)N[C@@H](C)C(=O)N[C@@H](CCC(N)=O)C(=O)NCC(=O)N1CCC[C@H]1C(=O)N[C@@H](CO)C(=O)N[C@@H](CO)C(=O)NCC(=O)N[C@@H](C)C(=O)N1CCC[C@H]1C(=O)N1CCC[C@H]1C(=O)N1CCC[C@H]1C(=O)N[C@@H](CO)C(=O)O` [SEQ ID NO: 11, H2N-Y-Aib-E-G-T-F-I-S-D-I-S-I-Aib-K[{AEEA}2-gGlu-C18OH]-DRIHQEEFIEWILAQGPSSGAPPPS-OH] (H-Y[Aib]EGTFISDLSI[Aib]K([AEEA-AEEA-γGlu-C18 diacid])DRIHQEEFIEWLLAQGPSSGAPPPS-OH): in the series “physchem”, the Soluble amount is over 9.8 mg/mL and the solubility at 24 h is over 9800 µg/mL. In addition, the pIC50 in series [1] is 9.30. Besides, at human GIP receptor, the Emax is 122%.
